Experimental data published in patent US20260191874A1, “FUSED AMINO PYRIMIDINE COMPOUNDS FOR TREATMENT OF AUTISM SPECTRUM DISORDER, OBSESSIVE COMPULSIVE DISORDER AND TICS” (Ovid Therapeutics Inc., priority 2024, published 2026).

Molecular target: T1, KCC4 (Homo sapiens, UniProt Q9Y666)
T1 construct: expressed in transfected cells; host or cells: HEK-293
T1 sequence (Q9Y666 1-1083): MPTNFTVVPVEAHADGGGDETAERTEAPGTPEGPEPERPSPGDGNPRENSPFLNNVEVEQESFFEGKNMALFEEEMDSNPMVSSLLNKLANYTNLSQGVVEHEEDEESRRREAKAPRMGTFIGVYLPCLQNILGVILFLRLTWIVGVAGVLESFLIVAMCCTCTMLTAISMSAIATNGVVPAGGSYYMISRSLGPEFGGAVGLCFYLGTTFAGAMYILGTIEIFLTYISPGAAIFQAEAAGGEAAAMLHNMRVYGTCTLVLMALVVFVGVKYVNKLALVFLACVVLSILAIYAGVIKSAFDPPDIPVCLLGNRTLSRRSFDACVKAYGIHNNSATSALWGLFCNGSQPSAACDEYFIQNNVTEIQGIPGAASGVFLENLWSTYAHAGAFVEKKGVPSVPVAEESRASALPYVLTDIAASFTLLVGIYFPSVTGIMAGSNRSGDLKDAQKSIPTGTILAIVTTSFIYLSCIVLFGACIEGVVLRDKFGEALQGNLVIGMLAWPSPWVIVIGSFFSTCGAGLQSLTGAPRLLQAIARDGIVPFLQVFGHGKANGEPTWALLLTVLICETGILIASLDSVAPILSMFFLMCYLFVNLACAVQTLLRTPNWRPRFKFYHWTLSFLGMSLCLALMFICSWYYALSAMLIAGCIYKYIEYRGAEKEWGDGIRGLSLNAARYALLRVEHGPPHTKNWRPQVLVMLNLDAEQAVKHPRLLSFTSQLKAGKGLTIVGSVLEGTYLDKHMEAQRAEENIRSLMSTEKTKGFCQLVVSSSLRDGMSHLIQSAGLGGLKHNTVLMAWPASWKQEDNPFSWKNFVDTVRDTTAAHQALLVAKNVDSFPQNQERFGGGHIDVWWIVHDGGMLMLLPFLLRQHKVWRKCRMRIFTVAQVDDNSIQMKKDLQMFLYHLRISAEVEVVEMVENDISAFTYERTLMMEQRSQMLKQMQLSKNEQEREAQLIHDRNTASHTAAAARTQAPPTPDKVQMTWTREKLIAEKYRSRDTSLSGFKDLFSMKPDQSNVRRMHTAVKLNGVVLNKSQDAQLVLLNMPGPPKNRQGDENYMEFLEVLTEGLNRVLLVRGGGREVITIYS
Assay: Tl+ flux assay in HEK-293 cells expressing KCC4
Type: cell-based
Conditions: read-out: concentration at which effects on KCC4 were seen (EC50 chart, FIG. 1G)
Experimental: FLIPR TI Flux assay. HEK-293 cells were washed with HBSS, and then incubated with loading buffer containing TI sensitive fluorescent dye (https://www.moleculardevices.com), 20 μM bumetanide 20 μM ouabain and 2.5 mM probenecid for 1 h at room temperature (RT) under control conditions or with drugs in the dark using a FlexStation 3 microplate reader (Molecular Devices) and imaged […] for 30 min. Stimulus buffer was added containing 5 mM K^+/0.5 mM Tl^+ and cells were imaged every 1.5 over a 190 second time course The initial rate Tl^+ uptake (Relative Fluorescence Units (RFU) per second) was determined following addition of the stimulus buffer as outlined previously (Conway et al., 2017, supra) (Lee et al., 2022, supra).
Several studies have shown that the activity and plasma membrane accumulation of KCC2 is potentiated via phosphorylation of S940, a process mediated by the activity of protein kinase C and protein phosphatase 1 (Lee et al., 2011, supra; Lee et al., J Biol Chem 282, 29777-29784 (2007); Moore et al., Proc. Natl. Acad. Sci. U.S.A 115, 10166-10171 (2018); Moore et al., Trends Neurosci. 40, 555-571 (2017); Silayeva et al., Proc. Natl. Acad. Sci. U.S.A 112, 3523-3528 (2015)). […] Compared to KCC2, effects on KCC3, KCC4, and NKCC1 were only seen at concentrations more than 35-fold that of KCC2 (≥100 μM) (FIG. 1G).

## C[C@@H]1CN(c2nc3c(c(Nc4ccc(C5CCCCC5)cc4)n2)COC3)CCO1 [Compound A, (R)—N-(4-cyclohexylphenyl)-2-(2-methylmorpholino)-5,7-dihydrofuro[3,4-d]pyrimidin-4-amine]
  EC50: ≥ 100 µM
